≈ marks a conversion by molar mass, not a printed value. Like-named read-outs stand apart in the source and are kept apart here.

This passage reports solubility and absolute bioavailability results from patent publication EP0689844A1, “Complexes of vinpocetine formed with cyclodextrins, process for their preparation and pharmaceutical compositions containing them” (TECNIMEDE-SOCIEDADE TECNICO-MEDICINAL, S.A., priority 1994, dated 1996).

For series [1] the following is noted: cited from earlier work.
A short description of series [2]: solubility of vinpocetine in cyclodextrin solutions of different concentrations (phase solubility, HPLC). It is filed as physicochemical. The conditions noted are these: aqueous cyclodextrin solution, 37 °C, aqueous with cosolvent or surfactant or cyclodextrin, thermodynamic from solid. On the procedure:
10 mg of vinpocetine, cyclodextrin in different amounts and 10 ml of distilled water were charged into 20 ml test tubes. After closing, the tubes were agitated for 24 hours at 37°C, thereafter the samples were filtrated and the filtrates were analysed by HPLC (High Performance Liquid Chromatography) in 0.1N HCl solution.

For series [3] the following is noted: p.o.; cited from earlier work.

One may read the solubility as the dissolved amount per volume that the medium holds. For the compound `CCOC(=O)C1=C[C@]2(CC)CCCN3CCc4c(n1c1ccccc41)[C@@H]32` [vinpocetine, eburnamenine-14-carboxylic acid ethyl ester], the solubility result in series [1] (in ethanol and 0.1N HCl) is on record as “dissolves well”; in series [1] (in water, ethyl ether and hexane), “poorly soluble”. Also, the solubility at 24 h turned out to be 5.5 µg/mL (≈ 15.7 µM) in series [2] (HP-β-cyd 25.0 mM in distilled water); 12.8 µg/mL (≈ 36.5 µM) in series [2] (HP-β-cyd 50.0 mM in distilled water); 23.2 µg/mL (≈ 66.2 µM) in series [2] (HP-β-cyd 100.0 mM in distilled water); 6.1 µg/mL (≈ 17.4 µM) in series [2] (γ-cyd 12.5 mM in distilled water); 12 µg/mL (≈ 34.2 µM) in series [2] (γ-cyd 25.0 mM in distilled water); 24.4 µg/mL (≈ 69.6 µM) in series [2] (γ-cyd 50.0 mM in distilled water). The absolute bioavailability in series [3] is recorded as 6.7%.
